# Results published in publication doi:10.1101/2025.05.02.651913 (bioRxiv, 2025).
# Read-outs that look alike come from different tables or passages of the source.
# What was measured:
# [1] = tested on: MPXV strain hMPXV/USA/MA001/2022 (Lineage B.1, Clade IIb); assay type: cell-based, Mpox virus (MPXV)
# MPXV [2] = tested on: MPXV; parameters: species or system C57BL/6 mice; details: mouse, in vivo
# MPXV [3] = assay type: cell-based, Mpox virus (MPXV)
# phospho-NF-κB = assay type: cell-based, human
# phospho-STING = assay type: cell-based, human
# MPXV Clade IIb = assay type: cell-based, Mpox virus (MPXV)
# Mpox-related lesions = details: human, in vivo; cited from earlier work
# MPXV (2022 Clade IIb) [4] = assay type: cell-based, Mpox virus (MPXV)
# MPXV (2022 Clade IIb) [5] = assay: microbe, parasite or virus in culture; assay type: cell-based, Mpox virus (MPXV); details: Monkeypox virus, read-out: IC50 (inhibition of MPXV infection)
# in vitro = details: human
# [6] = human, in vivo; cited from earlier work
# [7] = in vivo; cited from earlier work
# MPXV [8] = details: cited from earlier work
# MPXV [9] = details: in vivo; cited from earlier work
# vaccinia virus = details: cited from earlier work
# cowpox virus = details: cited from earlier work
compound,measurement,setting,value
IRAK4-IN-6,Duplicate of Duplicate of Hits: No CPE,[1],1
same,visible skin lesions or neutrophil infiltration,MPXV [2],none of the mice in the IRAK4-IN-6-treated group had visible skin lesions or neutrophil infiltration
same,viral protein in cell lysates (Western blot),MPXV [3],substantially reduced
same,CC50,VK2/E6E7 cells,> 1000 nM
same,nontoxic up to a concentration,VK2/E6E7 cells,≤ 1000 nM
same,phospho-NF-κB expression,phospho-NF-κB,significantly increased
same,phospho-STING expression,phospho-STING,significantly increased
O=C(NN1C(=O)[C@@H]2[C@@H]3C=C[C@@H]([C@H]4C[C@@H]34)[C@@H]2C1=O)c1ccc(C(F)(F)F)cc1 [Tecovirimat],antiviral activity against MPXV Clade IIb,MPXV Clade IIb,did not exhibit strong antiviral activity
same,time to resolution of Mpox-related lesions,Mpox-related lesions,did not reduce the time to resolution of Mpox-related lesions
CCOc1cc2ncc(C#N)c(Nc3ccc(F)c(Cl)c3)c2cc1NC(=O)/C=C/CN(C)C [Pelitinib],Duplicate of Duplicate of Hits: No CPE,[1],1
same,antiviral activity at lower concentrations,MPXV (2022 Clade IIb) [4],potent antiviral activity
CCNC(=O)N1CCc2cc(OC)c(OCCc3ccc(OC)c(N)c3)cc2C1c1ccc(OC)cc1C (centres unmarked) [KRAS inhibitor-10],Duplicate of Duplicate of Hits: No CPE,[1],1
same,skin inflammation and lesions at Day 3,MPXV [2],some low-grade inflammation and lesions
same,skin inflammation and lesions at Day 12,MPXV [2],fully resolved
same,CC50,VK2/E6E7 cells,> 1000 nM
same,nontoxic up to a concentration,VK2/E6E7 cells,≤ 1000 nM
O=C(Nc1ccc([N+](=O)[O-])cc1Cl)c1cc(Cl)ccc1O [Niclosamide],IC50,MPXV (2022 Clade IIb) [5],11.8 nM
same,Duplicate of Duplicate of Hits: No CPE,[1],1
same,CC50,in vitro,96.3 nM
same,concentration at which toxicity was shown,VK2/E6E7 cells; human,80 to 100 nM
same,"viral inhibition compared to vehicle treatment (percent viral infectivity, Fig. 2B)",MPXV (2022 Clade IIb) [4],strongest viral inhibition
"COc1ncc(-c2ccc3nccc(-c4ccnnc4)c3c2)cc1NS(=O)(=O)c1ccc(F)cc1F [GSK2126458, Omipalisib]",Duplicate of Duplicate of Hits: No CPE,[1],1
same,antiviral activity at lower concentrations,MPXV (2022 Clade IIb) [4],potent antiviral activity
Nc1ccn(C[C@@H](CO)OCP(=O)(O)O)c(=O)n1 [cidofovir],serious side effects in clinical trials,[6],kidney toxicity
"Cc1ccc(C(=O)Nc2ccc(CN3CCN(C)CC3)c(C(F)(F)F)c2)cc1C#Cc1cnc2[nH]ncc2c1 [GZD824, Olverembatinib (dimesylate)]",Duplicate of Duplicate of Hits: No CPE,[1],1
same,antiviral activity at lower concentrations,MPXV (2022 Clade IIb) [4],potent antiviral activity
PI3K/mTOR Inhibitor-11,Duplicate of Duplicate of Hits: No CPE,[1],1
same,CC50,VK2/E6E7 cells,421 nM
same,concentration at which toxicity was shown,VK2/E6E7 cells,80 to 100 nM
same,antiviral activity at lower concentrations,MPXV (2022 Clade IIb) [4],potent antiviral activity
NC(=O)c1ncn([C@@H]2O[C@H](CO)[C@@H](O)[C@H]2O)n1 [Ribavirin],adverse effect in humans,[7],severe bone marrow suppression
same,MPXV replication in vitro,MPXV [8],block MPXV replication
same,MPXV replication in mouse models,MPXV [9],block MPXV replication
CN(C)C/C=C/C(=O)Nc1cc2c(Nc3ccc(F)c(Cl)c3)ncnc2cc1OC(F)F.O=C(O)/C=C\C(=O)O.O=C(O)/C=C\C(=O)O [Mefatinib],Duplicate of Duplicate of Hits: No CPE,[1],1
same,antiviral activity at lower concentrations,MPXV (2022 Clade IIb) [4],potent antiviral activity
O=C(Nc1ncc([N+](=O)[O-])s1)c1ccc([N+](=O)[O-])c(Cl)c1 [SM-7368],Duplicate of Duplicate of Hits: No CPE,[1],1
same,skin inflammation and lesions at Day 3,MPXV [2],some low-grade inflammation and lesions
same,skin inflammation and lesions at Day 12,MPXV [2],fully resolved
same,viral protein in cell lysates (Western blot),MPXV [3],substantially reduced
same,CC50,VK2/E6E7 cells,> 1000 nM
same,nontoxic up to a concentration,VK2/E6E7 cells,≤ 1000 nM
same,antiviral activity at lower concentrations,MPXV (2022 Clade IIb) [4],potent antiviral activity
"CC(C)n1nc(-c2ccc3oc(N)nc3c2)c2c(N)ncnc21 [INK-128, Sapanisertib]",IC50,MPXV (2022 Clade IIb) [5],27.1 nM
same,Duplicate of Duplicate of Hits: No CPE,[1],1
same,CC50,in vitro,353 nM
same,concentration at which toxicity was shown,VK2/E6E7 cells; human,80 to 100 nM
same,antiviral activity at lower concentrations,MPXV (2022 Clade IIb) [4],potent antiviral activity
COc1cc2ncnc(Nc3ccc(F)c(Cl)c3)c2cc1OCCCN1CCOCC1 [Gefitinib],Duplicate of Duplicate of Hits: No CPE,[1],1
same,vaccinia virus replication,vaccinia virus,reduce vaccinia and cowpox virus replication
same,cowpox virus replication,cowpox virus,reduce vaccinia and cowpox virus replication
